16 compounds from patent US7173004B2, “Macrocyclic isoquinoline peptide inhibitors of hepatitis C virus” (Bristol-Myers Squibb Company, priority 2003, dated 2007) can be followed below.

Structures can show the parent of a compound that is named as a salt.

In one assay the test system is HCV replicon (HCV 1b-377-neo replicon cells, Huh7). Description: HCV replicon cell-based FRET assay. To be noted: Hepatitis C virus, Huh-7. On the procedure:
HCV Replion assays were utilized in the present invention, and were prepared, conducted and validated as follows:
An HCV replicon whole cell system was established as described by Lohmann V, Korner F, Koch J, Herian U, Theilmann L, Bartenschlager R., Science 285(5424): 110–3 (1999). This system enabled us to evaluate the effects of our HCV Protease compounds on HCV RNA replication. Briefly, using the HCV strain 1B sequence described in the Lohmann paper (Assession number: AJ238799), an HCV cDNA was synthesized by Operon Technologies, Inc. (Alameda, Calif.), and the full-length replicon was then assembled in plasmid pGem9zf(+) (Promega, Madison, Wis.) using standard molecular biology techniques. The replicon consists of (i) the HCV 5′ UTR fused to the first 12 amino acids of the capsid protein, (ii) the neomycin phosphotransferase gene (neo), (iii) the IRES from encephalomyocarditis virus (EMCV), and (iv) HCV NS3 to NS5B genes and the HCV 3′ UTR. Plasmid DNAs were linearized with ScaI and RNA transcripts were synthesized in vitro using the T7 MegaScript transcription kit (Ambion, Austin, Tex.) according to manufacturer's directions. To generate cell lines, 4×10^6 Huh-7 cells (kindly provided by R. Bartenschlager and available from Health Science Research Resources Bank, Japan Health Sciences Foundation) were electroporated (GenePulser System, Bio-Rad) with 10 microgram(“μg”) of RNA transcript and plated into 100-mm dishes. After 24 h, selective media containing 1.0 milligrams/milliliter (“mg/ml”) G418 was added and media was changed every 3 to 5 days. Approximately 4 weeks after electroporation, small colonies were visible which were isolated and expanded for further analysis. These cell lines were maintained at 37° C., 5% CO2, 100% relative humidity in DMEM (Cat# 11965-084) Gibco-BRL, Rockville, Md., with 10% heat inactivated calf serum (Sigma), 10 ml of 100× penicillin/streptomycin (Cat# 15140-122) Gibco-BRL, Rockville, Md., Geneticin (Cat# 10131-027) Gibco-BRL, Rockville, Md. at 1 mg/ml. One of the cell lines (deposited as ATCC Accession No. PTA-4583 in the American Type Culture Collection) which had approximately 3,000 copies of HCV replicon RNA/cell was used for development of the assay (HCV 1b-377-neo replicon cells).
Huh7 cells, constitutively expressing the HCV replicon, were grown in Dulbecco's Modified Eagle Media (DMEM) containing 10% Fetal calf serum (FCS) and 1 mg/ml G418 (Gibco-BRL). Cells were seeded the night before (1.5×10^4 cells/well) in 96-well tissue-culture sterile plates. Compound and no compound controls were prepared in DMEM containing 4% FCS, 1:100 Penicillin/Streptomysin, 1:100 L-glutamine and 5% DMSO in the dilution plate (0.5% DMSO final concentration in the assay). Compound/DMSO mixes were added to the cells and incubated for 4 days at 37° C. After 4 days, cells were first assessed for cytotoxicity using alamar Blue (Trek Diagnotstic Systems) for a CC50 reading. The toxicity of compound (CC50) was determined by adding 1/10th volume of alamar Blue to the media incubating the cells. After 4 hr, the fluorescence signal from each well was read, with an excitation wavelength at 530 nm and an emission wavelength of 580 nm, using the Cytofluor Series 4000 (Perspective Biosystems). Plates were then rinsed thoroughly with Phosphate-Buffered Saline (PBS) (3 times 150 μl). The cells were lysed with 25 μl of a lysis assay reagent containing an HCV protease substrate (5× cell Luciferase cell culture lysis reagent (Promega #E153A) diluted to 1× with distilled water, NaCl added to 150 mM final, the FRET peptide diluted to 10 μM final from a 2 mM stock in 100% DMSO). The HCV protease substrate (FRET peptide; AnaSpec, Inc. cat #22991, described by Taliani et al. in Anal. Biochem. 240(2):60–67 (1996)) contains a fluorescence donor, EDANS, near one end of the peptide and an acceptor, DABCYL, near the other end. […]
Broadly, the EC50 is the concentration that produces a half-maximal response. For the compound `CC(C)(C)OC(=O)N[C@H]1CCCCC/C=C\[C@@H]2C[C@@]2(C(=O)O)NC(=O)[C@@H]2C[C@@H](Oc3nccc4ccccc34)CN2C1=O` [Compound 1, 14-tert-Butoxycarbonylamino-18-(isoquinolin-1-yloxy)-2,15-dioxo-3,16-diaza-tricyclo[14.3.0.0^4,6]nonadec-7-ene-4-carboxylic acid], the EC50 is 500 to 5000 nM. The same measure, in the same setting: with `CC(C)(C)OC(=O)N[C@H]1CCCCC/C=C\[C@@H]2C[C@@]2(C(=O)NS(C)(=O)=O)NC(=O)[C@@H]2C[C@@H](Oc3nccc4ccccc34)CN2C1=O` [Compound 2, [18-(Isoquinolin-1-yloxy)-4-methanesulfonylaminocarbonyl-2,15-dioxo-3,16-diaza-tricyclo[14.3.0.0^4,6]nonadec-7-en-14-yl]-carbamic acid tert-butyl ester] the figure was 50 to 500 nM; with `CC(C)S(=O)(=O)NC(=O)[C@@]12C[C@H]1/C=C\CCCCC[C@H](NC(=O)OC(C)(C)C)C(=O)N1C[C@H](Oc3nccc4ccccc34)C[C@H]1C(=O)N2` [Compound 3, [18-(Isoquinolin-1-yloxy)-2,15-dioxo-4-(propane-2-sulfonylaminocarbonyl)-3,16-diaza-tricyclo-[14.3.0.0^4,6]nonadec-7-en-14-yl]-carbamic acid tert-butyl ester], 50 to 500 nM; with `CC(C)(C)OC(=O)N[C@H]1CCCCC/C=C\[C@@H]2C[C@@]2(C(=O)NS(=O)(=O)C2CC2)NC(=O)[C@@H]2C[C@@H](Oc3nccc4ccccc34)CN2C1=O` [Compound 4, [4-Cyclopropanesulfonylaminocarbonyl-18-(isoquinolin-1-yloxy)-2,15-dioxo-3,16-diaza-tricyclo[14.3.0.0^4,6]nonadec-7-en-14-yl]-carbamic acid tert-butyl ester], below 50 nM.

The compound `CC(C)(C)OC(=O)N[C@H]1CCCCC/C=C\[C@@H]2C[C@@]2(C(=O)NS(=O)(=O)C2(Cc3ccccc3)CC2)NC(=O)[C@@H]2C[C@@H](Oc3nccc4ccccc34)CN2C1=O` [Compound 5, [4-(1-Benzyl-cyclopropanesulfonylaminocarbonyl)-18-(isoquinolin-1-yloxy)-2,15-dioxo-3,16-diaza-tricyclo[14.3.0.0^4,6]nonadec-7-en-14-yl]-carbamic acid tert-butyl ester] returned an EC50 of 50 to 500 nM. Compound `CCCC1(S(=O)(=O)NC(=O)[C@@]23C[C@H]2/C=C\CCCCC[C@H](NC(=O)OC(C)(C)C)C(=O)N2C[C@H](Oc4nccc5ccccc45)C[C@H]2C(=O)N3)CC1` [Compound 6, [18-(Isoquinolin-1-yloxy)-2,15-dioxo-4-(1-propyl-cyclopropanesulfonylaminocarbonyl)-3,16-diaza-tricyclo[14.3.0.0^4,6]nonadec-7-en-14-yl]-carbamic acid tert-butyl ester] yielded an EC50 below 50 nM. In turn, `CCCC1(S(=O)(=O)NC(=O)[C@@]23C[C@H]2CCCCCCC[C@H](NC(=O)OC(C)(C)C)C(=O)N2C[C@H](Oc4nccc5ccccc45)C[C@H]2C(=O)N3)CC1` [Compound 7, [18-(Isoquinolin-1-yloxy)-2,15-dioxo-4-(1-propyl-cyclopropanesulfonylaminocarbonyl)-3,16-diaza-tricyclo[14.3.0.0^4,6]nonadec-14-yl]-carbamic acid tert-butyl ester] displayed an EC50 below 50 nM. On to `CC(C)(C)OC(=O)N[C@H]1CCCCC/C=C\[C@@H]2C[C@@]2(C(=O)NS(=O)(=O)C2(C)CC2)NC(=O)[C@@H]2C[C@@H](Oc3nccc4ccccc34)CN2C1=O` [Compound 8, [18-(Isoquinolin-1-yloxy)-4-(1-methyl-cyclopropanesulfonylaminocarbonyl)-2,15-dioxo-3,16-diaza-tricyclo[14.3.0.0^4,6]nonadec-7-en-14-yl]-carbamic acid tert-butyl ester], for which the EC50 was below 50 nM. As to `CC(C)(C)OC(=O)N[C@H]1CCCCC/C=C\[C@@H]2C[C@@]2(C(=O)NS(=O)(=O)C2CCC2)NC(=O)[C@@H]2C[C@@H](Oc3nccc4ccccc34)CN2C1=O` [Compound 9, [4-Cyclobutanesulfonylaminocarbonyl-18-(isoquinolin-1-yloxy)-2,15-dioxo-3,16-diaza-tricyclo[14.3.0.0^4,6]nonadec-7-en-14-yl]-carbamic acid tert-butyl ester], the EC50 is below 50 nM. Consider `CC(C)(C)OC(=O)N[C@H]1CCCCCCC[C@@H]2C[C@@]2(C(=O)NS(=O)(=O)C2CC2)NC(=O)[C@@H]2C[C@@H](Oc3nccc4ccccc34)CN2C1=O` [Compound 10, [4-Cyclopropanesulfonylaminocarbonyl-18-(isoquinolin-1-yloxy)-2,15-dioxo-3,16-diaza-tricyclo[14.3.0.0^4,6]nonadec-14-yl]-carbamic acid tert-butyl ester], for which the 50% effective concentration (EC50) is below 50 nM. The same measure, in the same setting: with `N[C@H]1CCCCC/C=C\[C@@H]2C[C@@]2(C(=O)NS(=O)(=O)C2CC2)NC(=O)[C@@H]2C[C@@H](Oc3nccc4ccccc34)CN2C1=O` [Compound 11, Cyclopropanesulfonic acid [14-amino-18-(isoquinolin-1-yloxy)-2,15-dioxo-3,16-diaza-tricyclo[14.3.0.0^4,6]nonadec-7-ene-4-carbonyl]-amide bis hydrochloride] the figure was 50 to 500 nM.

`COC(=O)N[C@H]1CCCCC/C=C\[C@@H]2C[C@@]2(C(=O)NS(=O)(=O)C2CC2)NC(=O)[C@@H]2C[C@@H](Oc3nccc4ccccc34)CN2C1=O` [Compound 12, [4-Cyclopropanesulfonylaminocarbonyl-18-(isoquinolin-1-yloxy)-2,15-dioxo-3,16-diaza-tricyclo[14.3.0.0^4,6]nonadec-7-en-14-yl]-carbamic acid methyl ester] returned an EC50 below 50 nM. `CC(C)(C)COC(=O)N[C@H]1CCCCC/C=C\[C@@H]2C[C@@]2(C(=O)NS(=O)(=O)C2CC2)NC(=O)[C@@H]2C[C@@H](Oc3nccc4ccccc34)CN2C1=O` [Compound 13, [4-Cyclopropanesulfonylaminocarbonyl-18-(isoquinolin-1-yloxy)-2,15-dioxo-3,16-diaza-tricyclo[14.3.0.0^4,6]nonadec-7-en-14-yl]-carbamic acid 2,2-dimethyl-propyl ester] gave an EC50 below 50 nM. `O=C(N[C@H]1CCCCC/C=C\[C@@H]2C[C@@]2(C(=O)NS(=O)(=O)C2CC2)NC(=O)[C@@H]2C[C@@H](Oc3nccc4ccccc34)CN2C1=O)OC1CCOCC1` [Compound 14, [4-Cyclopropanesulfonylaminocarbonyl-18-(isoquinolin-1-yloxy)-2,15-dioxo-3,16-diaza-tricyclo[14.3.0.0^4,6]nonadec-7-en-14-yl]-carbamic acid tetrahydro-pyran-4-yl ester] showed an EC50 below 50 nM. Still for that read-out and setting: in the case of `O=C(N[C@H]1CCCCC/C=C\[C@@H]2C[C@@]2(C(=O)NS(=O)(=O)C2CC2)NC(=O)[C@@H]2C[C@@H](Oc3nccc4ccccc34)CN2C1=O)O[C@H]1CCOC1` [Compound 15, [4-Cyclopropanesulfonylaminocarbonyl-18-(isoquinolin-1-yloxy)-2,15-dioxo-3,16-diaza-tricyclo[14.3.0.0^4,6]nonadec-7-en-14-yl]-carbamic acid tetrahydro-furan-3-yl ester] it was below 50 nM; in that of `CC(C)OC(=O)N[C@H]1CCCCC/C=C\[C@@H]2C[C@@]2(C(=O)NS(=O)(=O)C2CC2)NC(=O)[C@@H]2C[C@@H](Oc3nccc4ccccc34)CN2C1=O` [Compound 16, [4-Cyclopropanesulfonylaminocarbonyl-18-(isoquinolin-1-yloxy)-2,15-dioxo-3,16-diaza-tricyclo[14.3.0.0^4,6]nonadec-7-en-14-yl]-carbamic acid isopropyl ester], below 50 nM.

The assay is the same for the next values; noted with them: Hepatitis C virus, Huh-7; read-out: EC50 value in the replicon assay.
As to `CC(C)(C)OC(=O)N[C@H]1CCCCC/C=C\[C@@H]2C[C@@]2(C(=O)NS(C)(=O)=O)NC(=O)[C@@H]2C[C@@H](Oc3nccc4ccccc34)CN2C1=O` [Compound 2, [18-(Isoquinolin-1-yloxy)-4-methanesulfonylaminocarbonyl-2,15-dioxo-3,16-diaza-tricyclo[14.3.0.0^4,6]nonadec-7-en-14-yl]-carbamic acid tert-butyl ester], the EC50 turned out to be 146 nM.
